Results on 23 compounds are retold here after ChEMBL document CHEMBL6134864, “Discovery of FLT3-ITD Inhibitor Clifutinib: A Novel Biphenylacetylene Urea Derivative in Clinical Trials for the Treatment of Relapsed/Refractory FLT3-ITD+ Acute Myeloid Leukemia” (J Med Chem, 2025).

Bounds are passed on as bounds.

Data set [1] concerns MV4-11. The experiment in a line: cells. The note with it: Homo sapiens, MV4-11, 72 h.
Description: Antiproliferative activity against human MV4-11 cells assessed as inhibition of cell growth incubated for 72 hrs by celltiter-glo luminescent cell viability assay
The nature of data set [2]: AUClast in rat plasma at 5 mg/kg, po measured up to 24 hrs by LC-MS/MS analysis. The format is ADME, organism-based.
The nature of data set [3]: Cmax in rat plasma at 5 mg/kg, po measured up to 24 hrs by LC-MS/MS analysis. The data set is classed as ADME, organism-based.
Data set [4] is described as follows: Clearance in rat plasma at 5 mg/kg, po measured up to 24 hrs by LC-MS/MS analysis. The format is ADME, organism-based.
Data set [5] can be described thus: Half life in rat plasma at 5 mg/kg, po measured up to 24 hrs by LC-MS/MS analysis. The format is ADME, organism-based.
The nature of data set [6]: Oral bioavailability in rat plasma at 5 mg/kg measured up to 24 hrs by LC-MS/MS analysis. The data set is classed as ADME, organism-based.
For data set [7], the system named is BaF3. The data set can be described thus: Antiproliferative activity against mouse BaF3 cells harbouring FLT3-ITD-N676D mutant assessed as inhibition of cell growth incubated for 72 hrs by celltiter-glo luminescent cell viability assay. The format is functional, cell-based. The note with it: BaF3, 72 h.
Data set [8] deals with BaF3. The experiment in a line: cells. Conditions: Mus musculus, BaF3, 72 h.
In data set [9] the test system is BaF3. The data set can be described thus: Antiproliferative activity against mouse BaF3 cells harbouring FLT3-D835Y mutant assessed as inhibition of cell growth incubated for 72 hrs by celltiter-glo luminescent cell viability assay. The data set is classed as functional, cell-based. Conditions: BaF3, 72 h.
Data set [10] has as its system BaF3. The experiment in a line: Antiproliferative activity against mouse BaF3 cells harbouring FLT3-ITD-D835V mutant assessed as inhibition of cell growth incubated for 72 hrs by celltiter-glo luminescent cell viability assay. The data set is classed as functional, cell-based. Conditions: BaF3, 72 h.
Data set [11] deals with BaF3. The data set can be described thus: Antiproliferative activity against mouse BaF3 cells harbouring FLT3-ITD-Y842R mutant assessed as inhibition of cell growth incubated for 72 hrs by celltiter-glo luminescent cell viability assay. Conditions: BaF3, 72 h. The format is functional, cell-based.
Data set [12] relates to BaF3. The data set can be described thus: Antiproliferative activity against mouse BaF3 cells harbouring FLT3-ITD assessed as inhibition of cell growth incubated for 72 hrs by celltiter-glo luminescent cell viability assay. Conditions: BaF3, 72 h. The format is functional, cell-based.
Data set [13] concerns BaF3. The data set can be described thus: cells. Conditions: Mus musculus, BaF3, 72 h. The source holds these as a separate data set.
For data set [14], the system named is BaF3. The experiment in a line: cells. The note with it: Mus musculus, BaF3, 72 h. The source holds these as a separate data set.
For data set [15], the system named is BaF3. The data set can be described thus: cells. The note with it: Mus musculus, BaF3, 72 h. The source holds these as a separate data set.
Data set [16] relates to BaF3. The experiment in a line: Antiproliferative activity against mouse BaF3 cells harbouring FLT3-ITD-F691L mutant assessed as inhibition of cell growth incubated for 72 hrs by celltiter-glo luminescent cell viability assay. The format is functional, cell-based. Conditions: BaF3, 72 h.
The subject of data set [17] is BaF3. The experiment in a line: cells. Conditions: Mus musculus, BaF3, 72 h. The source holds these as a separate data set.
Description: Antiproliferative activity against mouse BaF3 cells harbouring FLT3-D83HY mutant assessed as inhibition of cell growth incubated for 72 hrs by celltiter-glo luminescent cell viability assay
In data set [18] the test system is BaF3. The experiment in a line: Antiproliferative activity against mouse BaF3 cells harbouring FLT3-ITD-D835Y mutant assessed as inhibition of cell growth incubated for 72 hrs by celltiter-glo luminescent cell viability assay. The data set is classed as functional, cell-based. The note with it: BaF3, 72 h.
Data set [19] can be described thus: Antitumor activity against human […] cells harbouring FLT3-ITD xenografted in NOD/SCID mouse model assessed as tumor regression rate at 20 mg/kg/day, po measured for 8 days by caliper analysis relative to control. The format is functional, MV4-11. The note with it: time 8 day.
Data set [20] concerns BaF3. The data set can be described thus: Antiproliferative activity against mouse BaF3 cells harbouring FLT3-D835V mutant assessed as inhibition of cell growth incubated for 72 hrs by celltiter-glo luminescent cell viability assay. The format is functional, cell-based. Conditions: BaF3, 72 h.
In data set [21] the test system is BaF3. The experiment in a line: Antiproliferative activity against mouse BaF3 cells harbouring FLT3-ITD-D835I mutant assessed as inhibition of cell growth incubated for 72 hrs by celltiter-glo luminescent cell viability assay. Conditions: BaF3, 72 h. The format is functional, cell-based.
In data set [22] the test system is BaF3. The experiment in a line: cells. Conditions: Mus musculus, BaF3, 72 h. The source holds these as a separate data set.
Data set [23] concerns BaF3. The experiment in a line: Antiproliferative activity against wild type mouse BaF3 cells assessed as inhibition of cell growth incubated for 72 hrs by celltiter-glo luminescent cell viability assay. The data set is classed as functional, cell-based. The note with it: BaF3, 72 h.
Data set [24] has as its system BaF3. The experiment in a line: Antiproliferative activity against mouse BaF3 cells harbouring FLT3-ITD-F691I mutant assessed as inhibition of cell growth incubated for 72 hrs by celltiter-glo luminescent cell viability assay. The data set is classed as functional, cell-based. The note with it: BaF3, 72 h.
For data set [25], the system named is BaF3. The data set can be described thus: Antiproliferative activity against mouse BaF3 cells harbouring FLT3-ITD-Y842H mutant assessed as inhibition of cell growth incubated for 72 hrs by celltiter-glo luminescent cell viability assay. The format is functional, cell-based. The note with it: BaF3, 72 h.
In data set [26] the target is hERG (KCNH2) (Homo sapiens, UniProt Q12809). The data set can be described thus: Inhibition of human ERG expressed in CHO cells at 30 uM by manual patch clamp assay relative to control. The format is toxicity, cell-based. The note with it: CHO cells expressing human ERG.
In data set [27] the test system is MOLM-13. The experiment in a line: Antitumor activity against human MOLM-13 cells xenografted in NOD/SCID mouse model assessed as tumor growth inhibition at 50 mg/kg/day, po by caliper analysis relative to control. The note with it: read-out: TGI. The format is functional.

hERG (KCNH2), sequence (Q12809 whole entry): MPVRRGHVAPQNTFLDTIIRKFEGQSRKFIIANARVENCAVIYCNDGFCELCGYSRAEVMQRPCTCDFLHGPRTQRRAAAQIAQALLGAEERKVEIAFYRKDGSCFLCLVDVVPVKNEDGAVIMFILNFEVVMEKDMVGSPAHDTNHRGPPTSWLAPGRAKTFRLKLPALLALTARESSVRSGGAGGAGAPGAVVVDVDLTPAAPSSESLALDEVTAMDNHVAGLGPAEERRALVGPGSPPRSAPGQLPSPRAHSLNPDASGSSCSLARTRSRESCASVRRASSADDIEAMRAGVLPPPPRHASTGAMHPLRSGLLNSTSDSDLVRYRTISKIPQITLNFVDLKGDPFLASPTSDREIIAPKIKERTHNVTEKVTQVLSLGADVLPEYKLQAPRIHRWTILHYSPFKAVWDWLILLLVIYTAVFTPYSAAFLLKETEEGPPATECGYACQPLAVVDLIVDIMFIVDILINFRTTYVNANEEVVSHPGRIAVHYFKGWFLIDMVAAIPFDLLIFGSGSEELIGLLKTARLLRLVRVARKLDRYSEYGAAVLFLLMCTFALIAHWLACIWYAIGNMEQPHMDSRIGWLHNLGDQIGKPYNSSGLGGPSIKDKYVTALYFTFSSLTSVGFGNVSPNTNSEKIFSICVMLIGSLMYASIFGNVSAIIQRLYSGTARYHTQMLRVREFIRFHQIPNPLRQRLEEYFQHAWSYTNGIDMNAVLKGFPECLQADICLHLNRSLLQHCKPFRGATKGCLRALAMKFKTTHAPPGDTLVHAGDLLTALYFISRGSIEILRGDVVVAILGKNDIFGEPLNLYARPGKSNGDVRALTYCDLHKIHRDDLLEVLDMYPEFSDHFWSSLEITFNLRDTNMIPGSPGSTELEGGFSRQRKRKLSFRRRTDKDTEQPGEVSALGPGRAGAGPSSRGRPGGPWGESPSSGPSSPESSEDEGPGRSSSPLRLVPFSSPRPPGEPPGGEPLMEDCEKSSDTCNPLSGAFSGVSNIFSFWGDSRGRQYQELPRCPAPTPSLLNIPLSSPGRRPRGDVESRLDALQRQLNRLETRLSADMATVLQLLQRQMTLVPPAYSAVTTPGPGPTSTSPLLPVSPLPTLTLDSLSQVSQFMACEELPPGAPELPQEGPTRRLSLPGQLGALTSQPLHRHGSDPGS

Compound `CN(C)C1CCN(CCCOc2ccc(C#Cc3ccc(NC(=O)Nc4cc(C(C)(C)C)on4)cc3)cc2)CC1` showed a 50% inhibitory concentration (IC50) in [1] of 8 nM.
In turn, `CC(C)(C)c1cc(NC(=O)Nc2ccc(C#Cc3ccc(OCCCN4CCOCC4)c(F)c3)cc2)no1` displayed an IC50 in [1] of 4.6 nM.
On the same count and under the same terms, with `CC(C)(C)c1cc(NC(=O)Nc2ccc(C#Cc3ccc(OCCCN4CCC5(COC5)C4)cc3)cc2)no1` the figure was 13.8 nM.
In [2], `CN1CCN(CCCOc2ccc(C#Cc3ccc(NC(=O)Nc4cc(C(C)(C)C)on4)cc3)cc2)CC1` had an AUC(0-t) at 24 h of 756 ng·h/mL. The peak concentration (Cmax) in data set [3] was 100 ng/mL. Moreover, in data set [4], the CL/F came out at 44.8 mL/min/kg. The compound also showed an IC50 in data set [1] of 2.4 nM. In data set [5], this compound had a half-life of 5.15 h. Moreover, in [6], the bioavailability came to 42%.
On to `CC(C)(C)c1cc(NC(=O)Nc2ccc(-c3cn4c(n3)sc3cc(OCCN5CCOCC5)ccc34)cc2)no1` [QUIZARTINIB], for which the half-maximal inhibitory concentration (IC50) in data set [7] worked out at 5.5 nM; in [8], 3.1 nM; in data set [9], 3.6 nM; in data set [10] it was 112 nM; in data set [11], 20.8 nM; in data set [12], 0.8 nM. In addition, the concentration for half-maximal inhibition (IC50) was 4.1 nM in data set [13]; 23.2 nM in data set [14]; 73.1 nM in data set [15]; 102 nM in data set [16]; 7.1 nM in [17]; 0.9 nM in [1]. In addition, the IC50 in data set [18] is 36 nM; in [20], 28.7 nM; in data set [21] it was 280 nM; in data set [22], 1.6 nM; in data set [23] it was more than 1000 nM; in data set [24], 136 nM. Also, the half-inhibitory concentration (IC50) in data set [25] was found to be 28.8 nM. In [2], this compound returned an AUC(0-t) at 24 h of 6320 ng·h/mL. In addition, in data set [3], the Cmax amounted to 741 ng/mL. The compound further returned a CL/F in data set [4] of 7.33 mL/min/kg. For the same compound, in data set [19], the Activity is reported as 88.6%. In data set [5], this compound gave a half-life of 5.22 h. The compound further registered a bioavailability in data set [6] of 57.6%.
In data set [2], `CN1CCN(CCOc2ccc(C#Cc3ccc(NC(=O)Nc4cc(C(C)(C)C)on4)cc3)cc2)CC1` yielded an AUC(0-t) at 24 h of 534 ng·h/mL. This compound returned a Cmax in data set [3] of 133 ng/mL. For the same compound, the CL/F in data set [4] is 68.2 mL/min/kg. This compound also gave a 50% inhibitory concentration (IC50) in [1] of 1.6 nM. This compound also had a half-life in data set [5] of 2.06 h. In [6], the bioavailability was found to be 48.4%.
Regarding `CC(C)(C)c1cc(NC(=O)Nc2ccc(C#Cc3ccc(OCCCN4CCOCC4)cc3)cc2C#N)no1`, the IC50 in data set [1] is more than 1000 nM.
Still for that read-out and setting: the same measure for `CC(C)(C)c1cc(NC(=O)Nc2ccc(C#Cc3ccc(OCCCN4CCOCC4)cc3Cl)cc2)no1`: 426 nM.
The same measure, in the same setting: with `COc1cc(C#Cc2ccc(OCCCN3CCOCC3)cc2)ccc1NC(=O)Nc1cc(C(C)(C)C)on1` the figure was 551 nM.
Consider `CC(C)(C)c1cc(NC(=O)Nc2ccc(C#Cc3ccc(OCCCN4CCOCC4)cc3F)cc2)no1`, for which the exposure AUC(0-t) at 24 h in data set [2] amounted to 11300 ng·h/mL. This compound also registered an inhibition at 30 µM in data set [26] of 36.3%. This compound showed a Cmax in data set [3] of 1370 ng/mL. This compound also yielded a CL/F in data set [4] of 4.83 mL/min/kg. This compound also had an IC50 in [1] of 5.2 nM. Besides, the half-life in data set [5] was 5.86 h. The compound further came in with a bioavailability in data set [6] of 69.3%.
The compound `CC(C)(C)c1cc(NC(=O)Nc2ccc(C#Cc3ccc(OCCN4CCOCC4)cc3)cc2)no1` registered an exposure AUC(0-t) at 24 h in data set [2] of 1790 ng·h/mL. For the same compound, the peak concentration (Cmax) in data set [3] turned out to be 522 ng/mL. In data set [4], this compound returned an apparent clearance CL/F of 22.8 mL/min/kg. This compound also returned a 50% inhibitory concentration (IC50) in [1] of 1.4 nM. In [5], this compound showed a half-life of 4.84 h. In addition, the bioavailability in [6] amounted to 49.2%.
With `CC(C)(C)c1cc(NC(=O)Nc2ccc(C#Cc3ccc(OCCN4C[C@@H]5OCCO[C@@H]5C4)cc3)cc2)no1`, the exposure AUC(0-t) at 24 h in [2] came to 6770 ng·h/mL. For the same compound, the concentration in data set [3] peaked (Cmax) at 862 ng/mL. In addition, the CL/F in [4] came out at 7.78 mL/min/kg. Besides, in [1], half-maximal inhibition (IC50) required 1.1 nM. The half-life in data set [5] was 3.9 h. In addition, in [6], the bioavailability worked out at 63.6%.
In turn, `CC(C)(C)c1cc(NC(=O)Nc2ccc(C#Cc3ccc(OCCCN4CCOCC4)cc3O)cc2)no1` yielded an IC50 in data set [1] of 25.5 nM.
The same measure, in the same setting: the same measure for `CC(C)(C)c1cc(NC(=O)Nc2ccc(C#Cc3ccc(OCCCN4CCOCC4)c(O)c3)cc2)no1`: 0.9 nM; for `CC(C)(C)c1cc(NC(=O)Nc2ccc(C#Cc3ccc(OCCCN4C[C@@H]5OCCO[C@@H]5C4)cc3)cc2)no1`: 3.1 nM.
As for `Nc1ccn([C@@H]2O[C@H](CO)[C@@H](O)[C@@H]2O)c(=O)n1` [CYTARABINE], the inhibition in vivo at 50 mg/kg/day in [27] stood at 36%.
In data set [1], `CC(C)(C)c1cc(NC(=O)Nc2ccc(C#Cc3ccc(OCCCN4CCOCC4)c(C(F)(F)F)c3)cc2)no1` gave a half-maximal inhibitory concentration (IC50) of 17.7 nM.
Compound `CC(C)(C)c1cc(NC(=O)Nc2ccc(C#Cc3ccc(OCCCN4CCOCC4)cc3)cc2F)no1` came in with a half-inhibitory concentration (IC50) in data set [1] of 4.8 nM.
The same measure, in the same setting: the same measure for `CN(C)C1CCN(CCOc2ccc(C#Cc3ccc(NC(=O)Nc4cc(C(C)(C)C)on4)cc3)cc2)CC1`: 34.4 nM; for `CC(C)(C)c1cc(NC(=O)Nc2ccc(C#Cc3cnn4c(OCCCN5CCOCC5)ccnc34)cc2)no1`: 1.9 nM.
The same measure, in the same setting: the same measure for `CC(C)(C)c1cc(NC(=O)Nc2ccc(C#Cc3ccc(OCCCN4CCOCC4)cc3)nc2)no1`: more than 1000 nM; for `CC(C)(C)c1cc(NC(=O)Nc2ccc(C#Cc3ccc(OCCCN4CCOCC4)c(Cl)c3)cc2)no1`: 9.8 nM.
`COc1cc(C#Cc2ccc(NC(=O)Nc3cc(C(C)(C)C)on3)cc2)ccc1OCCCN1CCOCC1` returned an area under the curve AUC(0-t) at 24 h in data set [2] of 1270 ng·h/mL. For the same compound, in data set [3], the Cmax turned out to be 194 ng/mL. This compound gave a CL/F in [4] of 26.8 mL/min/kg. For the same compound, in data set [1], the IC50 worked out at 0.8 nM. This compound also showed a half-life in data set [5] of 3.55 h. The bioavailability in [6] stood at 40.8%.
